Laboratory results reported in PubChem BioAssay AID1963832 (Molecular Pharmacology Branch, DTP, NCI, 2024).

Test system: 885724-159-R-J1-PDC complex spheroid viability
Test: Anticancer human tumor 885724-159-R-J1-PDC patient-derived pancreatic adenocarcinoma cell line growth inhibition [POLQ]
Conditions: for IC50: curve of first compound; for viability, T/C: stronger effect = lower value
Summary of the method: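 Complex spheroid viability model combining PDC tumour cells with endothelial (HUVEC) and MSC stromal cells. Novobiocin, ART-558 or RP6685 were tested singly and in combination with standard and investigational anticancer drugs. Each was titrated in half-log steps from near clinical Cmax, or from 10 microM where Cmax was unknown.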

[1] = second compound 0.0316 µM, first compound 0.00316 µM
[2] = second compound 0.0316 µM, first compound 0.01 µM
[3] = second compound 0.0316 µM, first compound 0.0316 µM
[4] = second compound 0.0316 µM, first compound 0.1 µM
[5] = second compound 0.1 µM, first compound 0.00316 µM
[6] = second compound 0.1 µM, first compound 0.01 µM
[7] = second compound 0.1 µM, first compound 0.0316 µM
[8] = second compound 0.1 µM, first compound 0.1 µM
[9] = second compound 0.316 µM, first compound 0.00316 µM
[10] = second compound 0.316 µM, first compound 0.01 µM
[11] = second compound 0.316 µM, first compound 0.0316 µM
[12] = second compound 0.316 µM, first compound 0.1 µM
[13] = second compound 1 µM, first compound 0.00316 µM
[14] = second compound 1 µM, first compound 0.01 µM
[15] = second compound 1 µM, first compound 0.0316 µM
[16] = second compound 1 µM, first compound 0.1 µM
[17] = second compound 3.16 µM, first compound 0.00316 µM
[18] = second compound 3.16 µM, first compound 0.01 µM
[19] = second compound 3.16 µM, first compound 0.0316 µM
[20] = second compound 3.16 µM, first compound 0.1 µM
[21] = second compound 10 µM, first compound 0.00316 µM
[22] = second compound 10 µM, first compound 0.01 µM
[23] = second compound 10 µM, first compound 0.0316 µM
[24] = second compound 10 µM, first compound 0.1 µM
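Further: spheroids exposed to compounds for 7 days.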

Compound `CC[C@@]1(O)C(=O)OCc2c1cc1n(c2=O)Cc2cc3c(CN(C)C)c(O)ccc3nc2-1` + COC1C(OC(N)=O)C(O)C(Oc2ccc3c(O)c(NC(=O)c4ccc(O)c(CC=C(C)C)c4)c(=O)oc3c2C)OC1(C)C has an IC50 (second compound 0.0316 µM) greater than 0.1 µM, an IC50 (second compound 0.1 µM) of 0.0947 µM and an IC50 (second compound 0.316 µM) greater than 0.1 µM. It also gave an IC50 (second compound 1 µM) greater than 0.1 µM, an IC50 (second compound 3.16 µM) greater than 0.1 µM and an IC50 (second compound 10 µM) greater than 0.1 µM. For the same compound, the viability, T/C (second compound 0.0316 µM, first compound 0.000316 µM) was 102%, the viability, T/C (second compound 0.0316 µM, first compound 0.001 µM) was 101% and the viability, T/C [1] was 84%. For the same compound, the viability, T/C [2] was 98.1%, the viability, T/C [3] was 76.2% and the viability, T/C [4] was 51.3%. It also gave a viability, T/C (second compound 0.1 µM, first compound 0.000316 µM) of 111%, a viability, T/C (second compound 0.1 µM, first compound 0.001 µM) of 117% and a viability, T/C [5] of 97.6%. The viability, T/C [6] was 97%, the viability, T/C [7] was 76.7% and the viability, T/C [8] was 48.3%. For the same compound, the viability, T/C (second compound 0.316 µM, first compound 0.000316 µM) was 94.4%, the viability, T/C (second compound 0.316 µM, first compound 0.001 µM) was 101% and the viability, T/C [9] was 94.4%. For the same compound, the viability, T/C [10] was 87.2%, the viability, T/C [11] was 73.2% and the viability, T/C [12] was 54.4%. It also gave a viability, T/C (second compound 1 µM, first compound 0.000316 µM) of 104%, a viability, T/C (second compound 1 µM, first compound 0.001 µM) of 94.6% and a viability, T/C [13] of 93.7%. The viability, T/C [14] was 95.3%, the viability, T/C [15] was 76.2% and the viability, T/C [16] was 56.1%. The viability, T/C (second compound 3.16 µM, first compound 0.000316 µM) was 98.5%, the viability, T/C (second compound 3.16 µM, first compound 0.001 µM) was 104% and the viability, T/C [17] was 97%. The viability, T/C [18] was 84.3%, the viability, T/C [19] was 77.3% and the viability, T/C [20] was 55.1%. It also gave a viability, T/C (second compound 10 µM, first compound 0.000316 µM) of 109%, a viability, T/C (second compound 10 µM, first compound 0.001 µM) of 94.5% and a viability, T/C [21] of 94.4%. For the same compound, the viability, T/C [22] was 79.2%, the viability, T/C [23] was 66.1% and the viability, T/C [24] was 50.9%.
`CCc1c2c(nc3ccc(O)cc13)-c1cc3c(c(=O)n1C2)COC(=O)[C@]3(O)CC` + COC1C(OC(N)=O)C(O)C(Oc2ccc3c(O)c(NC(=O)c4ccc(O)c(CC=C(C)C)c4)c(=O)oc3c2C)OC1(C)C was tested, and the IC50 (second compound 0.0316 µM) was 0.0422 µM, the IC50 (second compound 0.1 µM) was 0.0489 µM and the IC50 (second compound 0.316 µM) was 0.0383 µM. The IC50 (second compound 1 µM) was 0.0411 µM, the IC50 (second compound 3.16 µM) was 0.0353 µM and the IC50 (second compound 10 µM) was 0.0358 µM. It also gave a viability, T/C [1] of 66.3%, a viability, T/C [2] of 58.3% and a viability, T/C [3] of 44.8%. For the same compound, the viability, T/C [4] was 47.9%, the viability, T/C (second compound 0.0316 µM, first compound 0.316 µM) was 29% and the viability, T/C (second compound 0.0316 µM, first compound 1 µM) was 5.01%. The viability, T/C [5] was 73.1%, the viability, T/C [6] was 58.2% and the viability, T/C [7] was 47.3%. The viability, T/C [8] was 49.9%, the viability, T/C (second compound 0.1 µM, first compound 0.316 µM) was 28.7% and the viability, T/C (second compound 0.1 µM, first compound 1 µM) was 4.25%. The viability, T/C [9] was 80.1%, the viability, T/C [10] was 54.3% and the viability, T/C [11] was 48.6%. For the same compound, the viability, T/C [12] was 45.7%, the viability, T/C (second compound 0.316 µM, first compound 0.316 µM) was 30.9% and the viability, T/C (second compound 0.316 µM, first compound 1 µM) was 5%. The viability, T/C [13] was 75.9%, the viability, T/C [14] was 60.4% and the viability, T/C [15] was 44.1%. It also gave a viability, T/C [16] of 49.9%, a viability, T/C (second compound 1 µM, first compound 0.316 µM) of 27.6% and a viability, T/C (second compound 1 µM, first compound 1 µM) of 4.79%. It also gave a viability, T/C [17] of 76.4%, a viability, T/C [18] of 59% and a viability, T/C [19] of 45.1%. The viability, T/C [20] was 44.3%, the viability, T/C (second compound 3.16 µM, first compound 0.316 µM) was 30% and the viability, T/C (second compound 3.16 µM, first compound 1 µM) was 4.76%. For the same compound, the viability, T/C [21] was 68.7%, the viability, T/C [22] was 52.3% and the viability, T/C [23] was 48.9%. It also gave a viability, T/C [24] of 43.5%, a viability, T/C (second compound 10 µM, first compound 0.316 µM) of 27.5% and a viability, T/C (second compound 10 µM, first compound 1 µM) of 4.27%.
